Test results as given in US20240158446A1, “CYCLIC COMPOUND HAVING SELECTIVE INHIBITORY ACTION ON KRAS OVER HRAS AND NRAS” (CHUGAI SEIYAKU KABUSHIKI KAISHA, priority 2021, published 2024).

What was measured:
[1] = molecular target: GDP-bound NRAS wild-type protein (Homo sapiens, UniProt P01111); assay: Binding to NRAS by surface plasmon resonance (SPR), Single Cycle Kinetics; settings: SPR, GDP-bound NRAS wild-type protein vs GDP-bound KRAS wild-type protein
[2] = molecular target: GDP-bound HRAS wild-type protein (Homo sapiens, UniProt P01112); assay: Binding to HRAS by surface plasmon resonance (SPR), Single Cycle Kinetics; settings: SPR, GDP-bound HRAS wild-type protein vs GDP-bound KRAS wild-type protein
Sequence of GDP-bound HRAS wild-type protein (P01112 whole entry): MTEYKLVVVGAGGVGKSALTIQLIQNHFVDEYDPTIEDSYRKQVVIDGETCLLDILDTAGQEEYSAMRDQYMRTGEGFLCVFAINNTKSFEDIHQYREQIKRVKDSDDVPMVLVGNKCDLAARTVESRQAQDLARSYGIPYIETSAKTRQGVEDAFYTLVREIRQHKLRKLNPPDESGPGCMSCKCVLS

Sequence of GDP-bound NRAS wild-type protein (P01111 whole entry): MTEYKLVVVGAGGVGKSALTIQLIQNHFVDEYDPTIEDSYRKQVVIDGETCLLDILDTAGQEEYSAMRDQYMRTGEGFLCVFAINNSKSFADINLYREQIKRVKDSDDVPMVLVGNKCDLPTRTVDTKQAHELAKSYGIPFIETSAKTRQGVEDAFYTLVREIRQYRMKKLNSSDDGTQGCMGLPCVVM

| Compound | NRAS/KRAS (ratio of KD value for NRAS to KD value for KRAS) [1] | HRAS/KRAS (ratio of KD value for HRAS to KD value for KRAS) [2] |
| --- | --- | --- |
| CCO[C@@H]1C[C@H]2C(=O)NC3(CCC3)C(=O)N(C)[C@@H](C3CCCC3)C(=O)N(C)[C@H](C(=O)N(C)C)CC(=O)N(C)[C@@H](CC)C(=O)N[C@@H]([C@@H](C)CC)C(=O)N(C)CC(=O)N(C)[C@H]3CCCCCN(C3=O)[C@@H](Cc3ccc4ccsc4c3)C(=O)N(C)CC(=O)N[C@@H](CCc3cc(F)c(C(F)(F)F)c(F)c3)C(=O)N2C1 [PP0910] | B (a compound having 3 or more and less than 10 is denoted as B) | B (a compound having 3 or more and less than 10 is denoted as B) |
| CCO[C@@H]1C[C@H]2C(=O)NC3(CCC3)C(=O)N(C)[C@@H](C3CCCC3)C(=O)N(CC)[C@H](C(=O)N3CCOCC3)CC(=O)N(C)[C@@H](CCC(Cl)Cl)C(=O)N[C@@H]([C@@H](C)CC)C(=O)N(C)CC(=O)N(C)[C@H]3CCCCCN(C3=O)[C@@H](Cc3ccc(C(F)(F)F)cc3)C(=O)N(C)CC(=O)N[C@@H](CCc3cc(F)c(C(F)(F)F)c(F)c3)C(=O)N2C1 [PP0949] | A (a compound having 10 or more and less than 20 is denoted as A) | A (a compound having 10 or more and less than 20 is denoted as A) |
| CC[C@H](C)[C@@H]1NC(=O)[C@H](CC(C)C)N(C)C(=O)C[C@@H](C(=O)N2CCOCC2)N(C)C(=O)[C@H](C2CCCC2)N(C)C(=O)C2(CCCC2)NC(=O)[C@@H]2CCCN2C(=O)[C@H](CCc2cc(F)c(C(F)(F)F)c(F)c2)NC(=O)CN(C)C(=O)[C@H](Cc2ccc(F)cc2)N2CCCCC[C@@H](C2=O)N(C)C(=O)CN(C)C1=O [PP0964] | B (a compound having 3 or more and less than 10 is denoted as B) | B (a compound having 3 or more and less than 10 is denoted as B) |
| CCO[C@@H]1C[C@H]2C(=O)NC3(CCCC3)C(=O)N(C)[C@@H](C3CCCC3)C(=O)N(C)[C@H](C(=O)N3CCOCC3)CC(=O)N(C)[C@@H](CC(C)C)C(=O)N[C@@H]([C@@H](C)CC)C(=O)N(C)CC(=O)N(C)[C@H]3CCCCCN(C3=O)[C@@H](Cc3ccc(F)cc3)C(=O)N(C)CC(=O)N[C@@H](CCc3ccc(C(F)(F)F)c(Cl)c3)C(=O)N2C1 [PP0965] | B (a compound having 3 or more and less than 10 is denoted as B) | B (a compound having 3 or more and less than 10 is denoted as B) |
| CCO[C@@H]1C[C@H]2C(=O)NC3(CCC3)C(=O)N(C)[C@@H](C3CCCC3)C(=O)N(C)[C@H](C(=O)N3CCOCC3)CC(=O)N(C)[C@@H](CC(C)C)C(=O)N[C@@H]([C@@H](C)CC)C(=O)N(C)CC(=O)N(C)[C@H]3CCCCCN(C3=O)[C@@H](Cc3ccc(F)cc3)C(=O)N(C)CC(=O)N[C@@H](CCc3ccc(C(F)(F)F)c(Cl)c3)C(=O)N2C1 [PP0968] | B (a compound having 3 or more and less than 10 is denoted as B) | B (a compound having 3 or more and less than 10 is denoted as B) |
| CC[C@H](C)[C@@H]1NC(=O)[C@H](CC(C)C)N(C)C(=O)C[C@@H](C(=O)N2CCOCC2)N(C)C(=O)[C@H](C2CCCC2)N(C)C(=O)C2(CCC2)NC(=O)[C@@H]2CC(F)(F)CN2C(=O)[C@H](CCc2ccc(C(F)(F)F)c(Cl)c2)NC(=O)CN(C)C(=O)[C@H](Cc2ccc(F)cc2)N2CCCCC[C@@H](C2=O)N(C)C(=O)CN(C)C1=O [PP0969] | B (a compound having 3 or more and less than 10 is denoted as B) | B (a compound having 3 or more and less than 10 is denoted as B) |
| CC[C@H](C)[C@@H]1NC(=O)[C@H](CC(C)C)N(C)C(=O)C[C@@H](C(=O)N(C)C)N(C)C(=O)[C@H](C2CCCC2)N(C)C(=O)C2(CCCC2)NC(=O)[C@@H]2CCCN2C(=O)[C@H](CCc2ccc(C(F)(F)F)c(Cl)c2)NC(=O)CN(C)C(=O)[C@H](Cc2ccc(F)cc2)N2CCCCC[C@@H](C2=O)N(C)C(=O)CN(C)C1=O [PP0971] | B (a compound having 3 or more and less than 10 is denoted as B) | B (a compound having 3 or more and less than 10 is denoted as B) |
| CCO[C@@H]1C[C@H]2C(=O)NC3(CCC3)C(=O)N(C)[C@@H](C3CCCC3)C(=O)N(C)[C@H](C(=O)N(C)C)CC(=O)N(C)[C@@H](CC(C)C)C(=O)N[C@@H]([C@@H](C)CC)C(=O)N(C)CC(=O)N(C)[C@H]3CCCCCN(C3=O)[C@@H](Cc3ccc(F)cc3)C(=O)N(C)CC(=O)N[C@@H](CCc3ccc(C(F)(F)F)c(Cl)c3)C(=O)N2C1 [PP0972] | B (a compound having 3 or more and less than 10 is denoted as B) | B (a compound having 3 or more and less than 10 is denoted as B) |
| CC[C@H](C)[C@@H]1NC(=O)[C@H](CC(C)C)N(C)C(=O)C[C@@H](C(=O)N2CCOCC2)N(C)C(=O)[C@H](C2CCCC2)N(C)C(=O)C2(CCC2)NC(=O)[C@@H]2C[C@@H](OCC3CC3)CN2C(=O)[C@H](CCc2cc(F)c(C(F)(F)F)c(F)c2)NC(=O)CN(C)C(=O)[C@H](Cc2ccc(C(F)(F)F)cc2)N2CCCC[C@@H](C2=O)N(C)C(=O)CN(C)C1=O [PP1000] | B (a compound having 3 or more and less than 10 is denoted as B) | B (a compound having 3 or more and less than 10 is denoted as B) |
| CC[C@H](C)[C@@H]1NC(=O)[C@H](CC(C)C)N(C)C(=O)C[C@@H](C(=O)N2CCOCC2)N(C)C(=O)[C@H](C2CCCC2)N(C)C(=O)C2(CCC2)NC(=O)[C@@H]2C[C@@H](OCC(F)F)CN2C(=O)[C@H](CCc2cc(F)c(C(F)(F)F)c(F)c2)NC(=O)CN(C)C(=O)[C@H](Cc2ccc(C(F)(F)F)cc2)N2CCCCC[C@@H](C2=O)N(C)C(=O)CN(C)C1=O [PP1006] | B (a compound having 3 or more and less than 10 is denoted as B) | B (a compound having 3 or more and less than 10 is denoted as B) |
| CC[C@H](C)[C@@H]1NC(=O)[C@H](CC(C)C)N(C)C(=O)C[C@@H](C(=O)N2CCOCC2)N(C)C(=O)[C@H](C2CCCC2)N(C)C(=O)C2(CCC2)NC(=O)[C@@H]2[C@@H](OCCC(F)(F)F)CCN2C(=O)[C@H](CCc2cc(F)c(C(F)(F)F)c(F)c2)NC(=O)CN(C)C(=O)[C@H](Cc2ccc(C(F)(F)F)cc2)N2CCCCC[C@@H](C2=O)N(C)C(=O)CN(C)C1=O [PP1008] | A (a compound having 10 or more and less than 20 is denoted as A) | B (a compound having 3 or more and less than 10 is denoted as B) |
| CCCCO[C@H]1CCN2C(=O)[C@H](CCc3cc(F)c(C(F)(F)F)c(F)c3)NC(=O)CN(C)C(=O)[C@H](Cc3ccc(C(F)(F)F)cc3)N3CCCCC[C@@H](C3=O)N(C)C(=O)CN(C)C(=O)[C@H]([C@@H](C)CC)NC(=O)[C@H](CC(C)C)N(C)C(=O)C[C@@H](C(=O)N3CCOCC3)N(C)C(=O)[C@H](C3CCCC3)N(C)C(=O)C3(CCC3)NC(=O)[C@H]12 [PP1009] | B (a compound having 3 or more and less than 10 is denoted as B) | B (a compound having 3 or more and less than 10 is denoted as B) |
| CC[C@H](C)[C@@H]1NC(=O)[C@H](CC(C)C)N(C)C(=O)C[C@@H](C(=O)N2CCOCC2)N(C)C(=O)[C@H](C2CCCC2)N(C)C(=O)C2(CCC2)NC(=O)[C@@H]2[C@@H](OCC3CC3)CCN2C(=O)[C@H](CCc2cc(F)c(C(F)(F)F)c(F)c2)NC(=O)CN(C)C(=O)[C@H](Cc2ccc(C(F)(F)F)cc2)N2CCCCC[C@@H](C2=O)N(C)C(=O)CN(C)C1=O [PP1010] | B (a compound having 3 or more and less than 10 is denoted as B) | B (a compound having 3 or more and less than 10 is denoted as B) |
| CCCCO[C@@H]1C[C@H]2C(=O)NC3(CCC3)C(=O)N(C)[C@@H](C3CCCC3)C(=O)N(C)[C@H](C(=O)N3CCOCC3)CC(=O)N(C)[C@@H](CC(C)C)C(=O)N[C@@H]([C@@H](C)CC)C(=O)N(C)CC(=O)N(C)[C@H]3CCCCN(C3=O)[C@@H](Cc3ccc(C(F)(F)F)cc3)C(=O)N(C)CC(=O)N[C@@H](CCc3cc(F)c(C(F)(F)F)c(F)c3)C(=O)N2C1 [PP1013] | C (A compound having a KD ratio of 0.1 or more and less than 3 is denoted as C) | C (A compound having a KD ratio of 0.1 or more and less than 3 is denoted as C) |
| CC[C@H](C)[C@@H]1NC(=O)[C@H](CC(C)C)N(C)C(=O)C[C@@H](C(=O)N2CCOCC2)N(C)C(=O)[C@H](C2CCCC2)N(C)C(=O)C2(CCC2)NC(=O)[C@@H]2C[C@@H](OCC3CC3)CN2C(=O)[C@H](CCc2cc(F)c(C(F)(F)F)c(F)c2)NC(=O)CN(C)C(=O)[C@H](Cc2ccc(C(F)(F)F)cc2)N2CCCC[C@@H](C2=O)N(C)C(=O)CN(C)C1=O [PP1014] | C (A compound having a KD ratio of 0.1 or more and less than 3 is denoted as C) | C (A compound having a KD ratio of 0.1 or more and less than 3 is denoted as C) |
| CCO[C@@H]1C[C@H]2C(=O)NC3(CCC3)C(=O)N(C)[C@@H](C3CCCC3)C(=O)N(C)[C@H](C(=O)N(C)C)CC(=O)N(C)[C@@H](CC(C)C)C(=O)N[C@@H]([C@@H](C)CC)C(=O)N(C)CC(=O)N(C)[C@H]3C[C@@H](C)CCN(C3=O)[C@@H](Cc3ccc(C(F)(F)F)cc3)C(=O)N(C)CC(=O)N[C@@H](CCc3cc(F)c(C(F)(F)F)c(F)c3)C(=O)N2C1 [PP1018] | C (A compound having a KD ratio of 0.1 or more and less than 3 is denoted as C) | B (a compound having 3 or more and less than 10 is denoted as B) |
